From patent publication US6818407B2, “Anti-endotoxic antimicrobial cationic peptides and methods of use therfor” (priority 1998, dated 2004)

Legend:
[1] = system: mutant (Nal B, H744) of P. aeruginosa; assay: microbe, parasite or virus in culture; assay type: cell-based; settings: for (B) MIC of Cipro when combined with peptide: ciprofloxacin with peptide at concentration (A); for (B) MIC of Cipro when combined with peptide / FIC index / (A) Peptide doses together with Cipro: Nal B, H744; for FIC index: peptide + ciprofloxacin; for MIC A MIC of Peptides: peptide alone, P. aeruginosa mutant Nal B, H744 (Table 5); for (A) Peptide doses together with Cipro: peptide concentration in combination with ciprofloxacin
In short: (§1)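 Checkerboard titration in Mueller Hinton broth, peptide against carbenicillin or ciprofloxacin, inoculum 10 μl of 10^−4 dilution of overnight culture, 18-24 h at 37 °C. Combination MIC is the lowest concentration reducing growth >50%. FIC index = A/MIC A + B/MIC B, with ≤~0.5 synergy, 1.0 additivity, >1.0 antagonism.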

[2] = system: β-lactamase derepressed mutant (H547) of P. aeruginosa; assay: microbe, parasite or virus in culture; assay type: cell-based; settings: P. aeruginosa H547; for (B) MIC of Carb when combined with peptide: Carbenicillin with peptide at concentration (A); for MIC A MIC of Peptides: peptide alone; for (A) Peptide doses together with Carb: peptide concentration in combination with Carbenicillin
In short: as §1

[3] = system: P. aeruginosa (H103); assay: Synergy study (checkerboard titration) with hen white lysozyme; assay type: cell-based; settings: for Lowest [CP] showing synergy: cationic peptide concentration, combined with lysozyme; for Lowest [Lyso] showing synergy: lysozyme concentration, combined with the peptide
[4] = system: E. coli; assay: as above; assay type: cell-based; settings: for Lowest [CP] showing synergy: cationic peptide concentration, combined with lysozyme; for Lowest [Lyso] showing synergy: lysozyme concentration, combined with the peptide
[5] = system: Salmonella typhi; assay: as above; assay type: cell-based; settings: for Lowest [CP] showing synergy: cationic peptide concentration, combined with lysozyme; for Lowest [Lyso] showing synergy: lysozyme concentration, combined with the peptide
[6] = system: S. aureus K147; assay: MIC, broth microdilution assay in polypropylene microtiter trays; assay type: cell-based; settings: average of three separate experiments
In short: (§2)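 Read-out: OD. MIC = lowest peptide conc. giving no OD change over the defined time.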

[7] = system: P. aeruginosa; assay: as above; assay type: cell-based; settings: average of three separate experiments
In short: as §2

[8] = system: E. coli; assay: as above; assay type: cell-based; settings: average of three separate experiments
In short: as §2

[9] = system: S. aureus; assay: as above; assay type: cell-based; settings: average of three separate experiments
In short: as §2

[10] = system: Pseudomonas aeruginosa strain M2; assay: Protection of neutropenic CD-1 mice challenged with Pseudomonas aeruginosa; assay type: in vivo; design: Survival post bacterial challenge, surviving mice: reference not given here; settings: for Survival (%) post bacterial challenge: PBS 8
In short: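 Neutropenia induced by three i.p. cyclophosphamide doses ([…], alternate days); mice then infected i.p. with 200-300 organisms/mouse. Peptides (200 µg/mouse = 8 mg/kg) in buffered citrate given i.p. at 30 min (single) or 30 min and 16 hrs (double) post-challenge; PBS control; mean of 2 experiments.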

[11] = double dose (200 μg per mouse i.p. at 30 min and 16 hrs), 16 hr
[12] = single dose (200 μg per mouse i.p. at 30 min), 16 hr

SMILES	(B) MIC of Cipro when combined with peptide [1]	FIC index [1]	MIC A MIC of Peptides [1] [µg/mL]	(A) Peptide doses together with Cipro [1] [µg/mL]	(B) MIC of Carb when combined with peptide [2] [µg/mL]	MIC A MIC of Peptides [2] [µg/mL]	(A) Peptide doses together with Carb [2] [µg/mL]	FIC for combination of cationic peptide and lysozyme [3]	Lowest [CP] showing synergy [3] [µg/mL]	Lowest [Lyso] showing synergy [3] [µg/mL]	FIC for combination of cationic peptide and lysozyme [4]	Lowest [CP] showing synergy [4] [µg/mL]	Lowest [Lyso] showing synergy [4] [µg/mL]	FIC for combination of cationic peptide and lysozyme [5]	Lowest [CP] showing synergy [5] [µg/mL]	Lowest [Lyso] showing synergy [5] [µg/mL]	MIC S. aureus K147 [6] [µg/mL]	MIC P. aeruginosa [7] [µg/mL]	MIC E. coli [8] [µg/mL]	MIC S. aureus [9] [µg/mL]	other results
CC[C@H](C)[C@H](NC(=O)CNC(=O)[C@@H](NC(=O)[C@H](CCCCN)NC(=O)[C@H](CCCCN)NC(=O)[C@H](Cc1ccccc1)NC(=O)[C@H](CC(C)C)NC(=O)[C@H](CCCCN)NC(=O)[C@H](Cc1c[nH]c2ccccc12)NC(=O)[C@@H](N)CCCCN)[C@@H](C)CC)C(=O)NCC(=O)N[C@@H](C)C(=O)N[C@H](C(=O)N[C@@H](CC(C)C)C(=O)N[C@@H](CCCCN)C(=O)N[C@H](C(=O)N[C@@H](CC(C)C)C(=O)N[C@@H](CCCCN)C(=O)N[C@H](C(=O)N[C@@H](CC(C)C)C(=O)N[C@H](C(=O)N[C@H](C(=O)NCC(=O)N[C@@H](CC(C)C)C(=O)N1CCC[C@H]1C(=O)N[C@@H](C)C(=O)N[C@@H](CC(C)C)C(=O)N[C@@H](CCCCN)C(=O)N[C@@H](CC(C)C)C(=O)N[C@H](C(=O)N[C@@H](CC(C)C)C(=O)N[C@@H](CCCCN)C(=O)O)[C@@H](C)O)[C@@H](C)O)[C@@H](C)O)C(C)C)C(C)C)C(C)C [CM4]	.125 µg/mL	.75	4	1	64	4	1	0.75	2.6	250	0.07	1.3	7.8	0.50	2.61	7.8	8	4	4	8	Survival post bacterial challenge, surviving mice [10, 11]: 14; Survival post bacterial challenge, surviving mice ([10]; double dose, 24 hr): 14; Survival post bacterial challenge, surviving mice ([10]; double dose, 41 hr): 7; Survival post bacterial challenge, surviving mice ([10]; double dose, 48 hr): 2; Survival post bacterial challenge, surviving mice ([10]; double dose, 64 hr): 2; Survival (%) post bacterial challenge ([10]; double dose, 64 hr): 14%; Survival post bacterial challenge, surviving mice ([10]; double dose, 72 hr): 2; Survival (%) post bacterial challenge ([10]; double dose, 72 hr): 14%; Survival post bacterial challenge, surviving mice ([10]; double dose, 96 hr): 2; Survival (%) post bacterial challenge ([10]; double dose, 96 hr): 14%; Survival post bacterial challenge, surviving mice [10, 12]: 15; Survival post bacterial challenge, surviving mice ([10]; single dose, 24 hr): 15; Survival post bacterial challenge, surviving mice ([10]; single dose, 41 hr): 9; Survival post bacterial challenge, surviving mice ([10]; single dose, 48 hr): 3; Survival post bacterial challenge, surviving mice ([10]; single dose, 64 hr): 1; Survival (%) post bacterial challenge ([10]; single dose, 64 hr): 6%; Survival post bacterial challenge, surviving mice ([10]; single dose, 72 hr): 1; Survival (%) post bacterial challenge ([10]; single dose, 72 hr): 6%; Survival post bacterial challenge, surviving mice ([10]; single dose, 96 hr): 1; Survival (%) post bacterial challenge ([10]; single dose, 96 hr): 16%
CC[C@H](C)[C@H](NC(=O)CNC(=O)[C@@H](NC(=O)[C@H](CCCCN)NC(=O)[C@H](CCCCN)NC(=O)[C@H](Cc1ccccc1)NC(=O)[C@H](CC(C)C)NC(=O)[C@H](CCCCN)NC(=O)[C@H](Cc1c[nH]c2ccccc12)NC(=O)[C@H](CC(C)C)NC(=O)[C@@H](N)CCCCN)[C@@H](C)CC)C(=O)NCC(=O)N[C@@H](C)C(=O)N[C@H](C(=O)N[C@@H](CC(C)C)C(=O)N[C@@H](CCCCN)C(=O)N[C@H](C(=O)N[C@@H](CC(C)C)C(=O)N[C@@H](CCCCN)C(=O)N[C@H](C(=O)N[C@@H](CC(C)C)C(=O)N[C@H](C(=O)N[C@H](C(=O)NCC(=O)N[C@@H](CC(C)C)C(=O)N1CCC[C@H]1C(=O)N[C@@H](C)C(=O)N[C@@H](CC(C)C)C(=O)N[C@@H](CCCCN)C(=O)N[C@@H](CC(C)C)C(=O)N[C@H](C(=O)N[C@@H](CC(C)C)C(=O)N[C@@H](CCCCN)C(=O)O)[C@@H](C)O)[C@@H](C)O)[C@@H](C)O)C(C)C)C(C)C)C(C)C [CM7]	.125 µg/mL	.63	16	2	64	32	2	0.75	2.6	250	0.31	0.65	7.8	0.52	2.61	15.6	4 to 8	8	2	8	Survival post bacterial challenge, surviving mice [10, 11]: 12; Survival post bacterial challenge, surviving mice ([10]; double dose, 24 hr): 12; Survival post bacterial challenge, surviving mice ([10]; double dose, 41 hr): 8; Survival post bacterial challenge, surviving mice ([10]; double dose, 48 hr): 6; Survival post bacterial challenge, surviving mice ([10]; double dose, 64 hr): 5; Survival (%) post bacterial challenge ([10]; double dose, 64 hr): 41%; Survival post bacterial challenge, surviving mice ([10]; double dose, 72 hr): 5; Survival (%) post bacterial challenge ([10]; double dose, 72 hr): 41%; Survival post bacterial challenge, surviving mice ([10]; double dose, 96 hr): 5; Survival (%) post bacterial challenge ([10]; double dose, 96 hr): 41%; Survival post bacterial challenge, surviving mice [10, 12]: 15; Survival post bacterial challenge, surviving mice ([10]; single dose, 24 hr): 15; Survival post bacterial challenge, surviving mice ([10]; single dose, 41 hr): 13; Survival post bacterial challenge, surviving mice ([10]; single dose, 48 hr): 13; Survival post bacterial challenge, surviving mice ([10]; single dose, 64 hr): 12; Survival (%) post bacterial challenge ([10]; single dose, 64 hr): 80%; Survival post bacterial challenge, surviving mice ([10]; single dose, 72 hr): 11; Survival (%) post bacterial challenge ([10]; single dose, 72 hr): 73%; Survival post bacterial challenge, surviving mice ([10]; single dose, 96 hr): 11; Survival (%) post bacterial challenge ([10]; single dose, 96 hr): 73%
